Data taken from ChEMBL document CHEMBL3826909, “Quinoxaline-based inhibitors of Ebola and Marburg VP40 egress” (Bioorg Med Chem Lett, 2016).
The source made the active and inactive calls. No cut-off for these calls is given here.

Experiments:
[1] = Cytotoxicity against African green monkey Vero E6 cells assessed as cell viability at 10 uM after 24 hrs by MTT assay relative to control; assay type: cell-based; conditions: chlorocebus sabaeus, read-out: Activity
[2] = Cytotoxicity against African green monkey Vero E6 cells assessed as cell viability at 1 uM after 24 hrs by MTT assay relative to control; assay type: cell-based; conditions: chlorocebus sabaeus, read-out: Activity
[3] = tested on: HEK-293T; assay: Inhibition of Ebola virus VP40 PPxY L-domain motif expressed in HEK293T cells assessed as reduction in VLP budding at 100 nM after 24 hrs by Western blot analysis relative to control; assay type: cell-based; conditions: Ebolavirus
[4] = target: T1, Matrix protein VP40 (Lake Victoria marburgvirus (strain Ravn-87) (MARV) (Marburg virus (strainKenya/Ravn/1987))) (UniProt Q1PDC8); assay: Inhibition of Marburg virus VP40 PPxY L-domain motif expressed in HEK293T cells assessed as reduction in VLP budding at 30 nM after 24 hrs by Western blot analysis relative to control; assay type: cell-based; conditions: HEK-293T
T1 sequence (whole entry): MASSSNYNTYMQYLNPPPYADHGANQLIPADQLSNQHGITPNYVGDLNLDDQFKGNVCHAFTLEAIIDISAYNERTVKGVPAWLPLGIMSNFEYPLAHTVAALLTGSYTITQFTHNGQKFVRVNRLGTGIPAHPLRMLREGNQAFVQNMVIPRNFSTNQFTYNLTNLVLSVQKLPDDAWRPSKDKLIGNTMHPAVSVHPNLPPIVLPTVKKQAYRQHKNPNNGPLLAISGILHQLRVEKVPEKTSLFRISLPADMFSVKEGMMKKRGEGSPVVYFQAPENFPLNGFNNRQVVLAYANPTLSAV

[5] = tested on: HEK-293T; assay: Inhibition of Ebola virus VP40 PPxY L-domain motif expressed in HEK293T cells assessed as reduction in VLP budding at 30 nM after 24 hrs by Western blot analysis relative to control; assay type: cell-based; conditions: Ebolavirus
[6] = target: T1, Matrix protein VP40 (Lake Victoria marburgvirus (strain Ravn-87) (MARV) (Marburg virus (strainKenya/Ravn/1987))); assay: Inhibition of Marburg virus VP40 PPxY L-domain motif expressed in HEK293T cells assessed as reduction in VLP budding at 0.1 uM relative to control; assay type: cell-based; conditions: HEK-293T
[7] = Cytotoxicity against human HEK293T cells assessed as cell viability at 0.1 uM after 24 hrs by MTT assay relative to control; assay type: cell-based, HEK-293T; conditions: read-out: Activity
[8] = target: T1, Matrix protein VP40 (Lake Victoria marburgvirus (strain Ravn-87) (MARV) (Marburg virus (strainKenya/Ravn/1987))); assay: Inhibition of Marburg virus VP40 PPxY L-domain motif expressed in HEK293T cells assessed as reduction in VLP budding at 100 nM after 24 hrs by Western blot analysis; assay type: cell-based; conditions: HEK-293T
[9] = tested on: Liver microsome; assay: Intrinsic clearance in human liver microsomes assessed per mg of protein; assay type: ADME
[10] = target: T1, Matrix protein VP40 (Lake Victoria marburgvirus (strain Ravn-87) (MARV) (Marburg virus (strainKenya/Ravn/1987))); assay: Inhibition of Marburg virus VP40 PPxY L-domain motif-Nedd4 interaction in HEK293T cells coexpressing NYFP-Nedd4 and CYFP-mVP40 at 0.1 uM by inverted confocal microscopy based bimolecular complementation assay; assay type: cell-based; conditions: HEK-293T
[11] = Cytotoxicity against African green monkey Vero E6 cells assessed as cell viability at 0.1 uM after 24 hrs by MTT assay relative to control; assay type: cell-based; conditions: chlorocebus sabaeus, read-out: Activity
[12] = Cytotoxicity against human HEK293T cells assessed as cell viability at 0.01 uM after 24 hrs by MTT assay relative to control; assay type: cell-based, HEK-293T; conditions: read-out: Activity
[13] = Cytotoxicity against human HEK293T cells assessed as cell viability at 1 uM after 24 hrs by MTT assay relative to control; assay type: cell-based, HEK-293T; conditions: read-out: Activity
[14] = target: Cytochrome P450 3A4 (Homo sapiens, UniProt P08684); assay: Inhibition of CYP3A4 (unknown origin) using midazolam as substrate; assay type: ADME
Cytochrome P450 3A4, sequence (P08684 whole entry): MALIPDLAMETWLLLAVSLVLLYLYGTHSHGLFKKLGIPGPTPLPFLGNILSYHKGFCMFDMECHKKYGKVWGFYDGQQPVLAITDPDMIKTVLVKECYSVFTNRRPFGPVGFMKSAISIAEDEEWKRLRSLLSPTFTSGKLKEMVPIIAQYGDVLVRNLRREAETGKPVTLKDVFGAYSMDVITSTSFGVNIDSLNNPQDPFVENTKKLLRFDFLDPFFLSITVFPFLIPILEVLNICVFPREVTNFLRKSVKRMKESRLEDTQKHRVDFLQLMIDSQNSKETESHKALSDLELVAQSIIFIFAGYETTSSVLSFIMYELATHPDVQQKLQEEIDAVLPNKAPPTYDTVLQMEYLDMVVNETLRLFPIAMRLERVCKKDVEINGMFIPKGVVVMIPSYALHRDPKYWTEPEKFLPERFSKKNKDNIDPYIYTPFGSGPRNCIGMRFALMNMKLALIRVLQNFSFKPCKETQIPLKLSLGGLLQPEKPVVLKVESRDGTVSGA

[15] = Cytotoxicity against human HEK293T cells assessed as cell viability at 10 uM after 24 hrs by MTT assay relative to control; assay type: cell-based, HEK-293T; conditions: read-out: Activity
[16] = tested on: Liver microsome; assay: Half life in human liver microsomes; assay type: ADME
[17] = tested on: Vesicular stomatitis virus; assay: Effect on viral protein levels in recombinant Vesicular stomatitis virus-M40 expressing Ebola virus VP40 PPxY L-domain motif infected in HEK293T cells at 30 to 100 nM after 8 hrs by Western blot analysis relative to control; assay type: ADME, organism-based; conditions: hek-293t, 0.1 µM
[18] = Effect on cellular protein levels in human HEK293T cells infected with recombinant Vesicular stomatitis virus-M40 expressing Ebola virus VP40 PPxY L-domain motif at 30 to 100 nM after 8 hrs by Western blot analysis relative to control; assay type: ADME, cell-based; conditions: hek-293t, 0.1 µM
[19] = Cytotoxicity against African green monkey Vero E6 cells assessed as cell viability at 0.01 uM after 24 hrs by MTT assay relative to control; assay type: cell-based; conditions: chlorocebus sabaeus, read-out: Activity
[20] = target: T1, Matrix protein VP40 (Lake Victoria marburgvirus (strain Ravn-87) (MARV) (Marburg virus (strainKenya/Ravn/1987))); assay: Inhibition of Marburg virus VP40 PPxY L-domain motif expressed in HEK293T cells assessed as reduction in VLP budding at 0.03 uM relative to control; assay type: cell-based; conditions: HEK-293T
[21] = Half life in mouse liver microsomes; assay type: ADME
[22] = Intrinsic clearance in mouse liver microsomes assessed per mg of protein; assay type: ADME
[23] = target: T1, Matrix protein VP40 (Lake Victoria marburgvirus (strain Ravn-87) (MARV) (Marburg virus (strainKenya/Ravn/1987))); assay: Inhibition of Marburg virus VP40 PPxY L-domain motif expressed in HEK293T cells assessed as reduction in VLP budding at 0.3 uM relative to control; assay type: cell-based; conditions: HEK-293T
[24] = target: T1, Matrix protein VP40 (Lake Victoria marburgvirus (strain Ravn-87) (MARV) (Marburg virus (strainKenya/Ravn/1987))); assay: Inhibition of Marburg virus VP40 PPxY L-domain motif expressed in HEK293T cells assessed as reduction in VLP budding at 1 uM relative to control; assay type: cell-based; conditions: HEK-293T

Structure (SMILES) | viability at 24 h, 10 µM [1] | viability at 24 h, 1 µM [2] | inhibition [6] | viability at 24 h, 0.1 µM [7] | inhibition [8] | Intrinsic clearance [9] | viability at 24 h, 0.1 µM [11] | viability at 24 h, 0.01 µM [12] | viability at 24 h, 1 µM [13] | IC50 [14] | viability at 24 h, 10 µM [15] | t1/2 [16] | viability at 24 h, 0.01 µM [19] | inhibition [20] | t1/2 [21] | also measured
Cc1nc2ccccc2nc1SCC(=O)NC(=O)Nc1ccccc1Cl | 80.9% | 79.1% | 99% | 69.3% | Active | 0.72 mL/min | 101% | 96.9% | 63.9% | > 33 µM | 65.4% | 76.1 min | 101% | 93% | 2 min | inhibition [3]: Active; inhibition [4]: Active; inhibition [5]: Active; inhibition [10]: Active; Activity [17]: Non-toxic; Activity [18]: Non-toxic
Cc1ccc(NC(=O)NC(=O)CSc2nc3ccccc3nc2C)cc1 | 69.8% | 78.5% | 100% | 81.9% | > 90% | 0.95 mL/min | 93.9% | 98.3% | 61.8% | > 33 µM | 52.8% | 57.7 min | 98.4% | 93% | < 1.4 min | CLH [22]: > 50 mL/min; fold change (FC) [4]: 15; inhibition [23]: 100%; inhibition [24]: 100%
